{
  "source": "paper PMC6792352",
  "about": "“Limited Chemical Structural Diversity Found to Modulate Thyroid Hormone Receptor in the Tox21 Chemical Library” (Environmental Health Perspectives, 2019)",
  "tested_on": "GH3-TRE-Luc cell line",
  "conditions": "read-out: AC50 (uM) modified / 1000, viability, 1 nM T3 present, 24 h",
  "note": "Where a name gives a salt, the structure may show the parent alone. Read-outs that look alike come from different tables or passages of the source.",
  "data": [
    {"smiles": "CN(C)CCCN1c2ccccc2Sc2ccc(Cl)cc21", "note": "[Chlorpromazine]", "values": [
      {"measurement": "CC50", "setting": "Tox21_110001=Tox21_110120", "result": 8.03, "unit": "µM"}
    ]},
    {"smiles": "CCCCCCCCCCn1cc[n+](C)c1", "note": "[1-Decyl-3-methylimidazolium chloride]", "values": [
      {"measurement": "CC50", "setting": "Tox21_110001=Tox21_202623", "result": 22.3, "unit": "µM"}
    ]},
    {"smiles": "CN(C)CCCN1c2ccccc2CCc2ccc(Cl)cc21", "note": "[Clomipramine]", "values": [
      {"measurement": "CC50", "setting": "Tox21_110001=Tox21_110117", "result": 8.96, "unit": "µM"}
    ]},
    {"smiles": "CC(C)(C)NC(=O)[C@@H]1CN(Cc2cccnc2)CCN1C[C@@H](O)C[C@@H](Cc1ccccc1)C(=O)N[C@H]1c2ccccc2C[C@H]1O", "note": "[Indinavir sulfate]", "values": [
      {"measurement": "CC50", "setting": "Tox21_110001=Tox21_111687", "result": 32, "unit": "µM"}
    ]},
    {"smiles": "c1cc(C(c2ccc(OCC3CO3)cc2)C(c2ccc(OCC3CO3)cc2)c2ccc(OCC3CO3)cc2)ccc1OCC1CO1", "note": "(stereo not shown) [1,1,2,2-(4,4',4'',4'''-Tetraglycidyloxyphenyl)ethane]", "values": [
      {"measurement": "CC50", "setting": "Tox21_110001=Tox21_202150", "result": 25.2, "unit": "µM"}
    ]},
    {"smiles": "O=C1OC(c2ccc(O)cc2)(c2ccc(O)cc2)c2ccccc21", "note": "[Phenolphthalein]", "values": [
      {"measurement": "CC50", "setting": "Tox21_110001=Tox21_110838", "result": 16.8, "unit": "µM"},
      {"measurement": "CC50", "setting": "Tox21_110001=Tox21_202219", "result": 25.4, "unit": "µM"},
      {"measurement": "CC50", "setting": "Tox21_110001=Tox21_300282", "result": 49.8, "unit": "µM"}
    ]},
    {"smiles": "CC1=CC(=O)c2ccccc2C1=O", "note": "[Menadione]", "values": [
      {"measurement": "CC50", "setting": "Tox21_110001=Tox21_301367", "result": 13, "unit": "µM"}
    ]},
    {"smiles": "CCN(CC)C(=S)SSC(=S)N(CC)CC", "note": "[Disulfiram]", "values": [
      {"measurement": "CC50", "setting": "Tox21_110001=Tox21_110280", "result": 19.9, "unit": "µM"},
      {"measurement": "CC50", "setting": "Tox21_110001=Tox21_300403", "result": 0.0747, "unit": "µM"},
      {"measurement": "CC50", "setting": "Tox21_110001=Tox21_400072", "result": 81.5, "unit": "µM"}
    ]},
    {"smiles": "O=C1Cc2cc(CCN3CCN(c4nsc5ccccc45)CC3)c(Cl)cc2N1", "note": "[Ziprasidone]", "values": [
      {"measurement": "CC50", "setting": "Tox21_110001=Tox21_113525", "result": 15.3, "unit": "µM"}
    ]},
    {"smiles": "C=C(CC)C(=O)c1ccc(OCC(=O)O)c(Cl)c1Cl", "note": "[Ethacrynic acid]", "values": [
      {"measurement": "CC50", "setting": "Tox21_110001=Tox21_110335", "result": 27, "unit": "µM"},
      {"measurement": "CC50", "setting": "Tox21_110001=Tox21_201102", "result": 65.9, "unit": "µM"}
    ]},
    {"smiles": "Cc1cc(C(C)(C)C)c(O)c(C(C)(C)C)c1", "note": "[Butylated hydroxytoluene]", "values": [
      {"measurement": "CC50", "setting": "Tox21_110001=Tox21_113537", "result": 42.9, "unit": "µM"},
      {"measurement": "CC50", "setting": "Tox21_110001=Tox21_201093", "result": 76.4, "unit": "µM"}
    ]},
    {"smiles": "N#Cc1c(Cl)c(Cl)c(Cl)c(C#N)c1Cl", "note": "[Chlorothalonil]", "values": [
      {"measurement": "CC50", "setting": "Tox21_110001=Tox21_201687", "result": 0.523, "unit": "µM"},
      {"measurement": "CC50", "setting": "Tox21_110001=Tox21_300862", "result": 0.188, "unit": "µM"}
    ]},
    {"smiles": "CCN(CC)C(=S)S", "note": "[Sodium diethyldithiocarbamate]", "values": [
      {"measurement": "CC50", "setting": "Tox21_110001=Tox21_112412", "result": 1.18, "unit": "µM"}
    ]},
    {"smiles": "CN1CCCCC1CCN1c2ccccc2Sc2ccc([S+](C)[O-])cc21", "note": "(stereo not shown) [Mesoridazine]", "values": [
      {"measurement": "CC50", "setting": "Tox21_110001=Tox21_112018", "result": 18.9, "unit": "µM"}
    ]},
    {"smiles": "CC(=O)O[C@@]12CO[C@@H]1C[C@H](O)[C@@]1(C)C(=O)[C@H](O)C3=C(C)[C@@H](OC(=O)[C@H](O)[C@@H](NC(=O)OC(C)(C)C)c4ccccc4)C[C@@](O)([C@@H](OC(=O)c4ccccc4)[C@H]21)C3(C)C", "note": "[Docetaxel]", "values": [
      {"measurement": "CC50", "setting": "Tox21_110001=Tox21_112781", "result": 0.0619, "unit": "µM"},
      {"measurement": "CC50", "setting": "Tox21_110001=Tox21_113088", "result": 0.364, "unit": "µM"}
    ]},
    {"smiles": "CCC(C)(C)C(=O)O[C@H]1C[C@@H](C)C=C2C=C[C@H](C)[C@H](CC[C@@H]3C[C@@H](O)CC(=O)O3)[C@H]21", "note": "[Simvastatin]", "values": [
      {"measurement": "CC50", "setting": "Tox21_110001=Tox21_300400", "result": 72.4, "unit": "µM"}
    ]},
    {"smiles": "CCCCNC(=O)OCC#CI", "note": "[3-Iodo-2-propynyl-N-butylcarbamate]", "values": [
      {"measurement": "CC50", "setting": "Tox21_110001=Tox21_201864", "result": 15.9, "unit": "µM"},
      {"measurement": "CC50", "setting": "Tox21_110001=Tox21_301117", "result": 4.22, "unit": "µM"}
    ]},
    {"smiles": "CCCCCCCCCCn1cc[n+](C)c1", "note": "[1-Decyl-3-methylimidazolium hexafluorophosphate]", "values": [
      {"measurement": "CC50", "setting": "Tox21_110001=Tox21_202624", "result": 11.4, "unit": "µM"}
    ]},
    {"smiles": "Nc1ccn([C@@H]2O[C@H](CO)[C@@H](O)[C@@H]2O)c(=O)n1", "note": "[Cytarabine hydrochloride]", "values": [
      {"measurement": "CC50", "setting": "Tox21_110001=Tox21_300488", "result": 0.11, "unit": "µM"}
    ]},
    {"smiles": "CC(C)NCC(O)COc1cccc2ccccc12", "note": "(stereo not shown) [Propranolol hydrochloride]", "values": [
      {"measurement": "CC50", "setting": "Tox21_110001=Tox21_201886", "result": 73, "unit": "µM"},
      {"measurement": "CC50", "setting": "Tox21_110001=Tox21_302905", "result": 30.5, "unit": "µM"}
    ]},
    {"smiles": "O=[N+]([O-])c1ccc(O)cc1", "note": "[4-Nitrophenol]", "values": [
      {"measurement": "CC50", "setting": "Tox21_110001=Tox21_300117", "result": 67.6, "unit": "µM"}
    ]},
    {"smiles": "CC/C(=C(\\c1ccc(O)cc1)c1ccc(OCCN(C)C)cc1)c1ccccc1", "note": "[4-Hydroxytamoxifen]", "values": [
      {"measurement": "CC50", "setting": "Tox21_110001=Tox21_303657", "result": 2.62, "unit": "µM"}
    ]},
    {"smiles": "CCCCCCCC[N+](C)(CCCCCCCC)CCCCCCCC", "note": "[Methyltrioctylammonium chloride]", "values": [
      {"measurement": "CC50", "setting": "Tox21_110001=Tox21_302198", "result": 5.04, "unit": "µM"}
    ]},
    {"smiles": "CC/C(=C(\\c1ccccc1)c1ccc(OCCN(C)C)cc1)c1ccccc1", "note": "[Tamoxifen citrate]", "values": [
      {"measurement": "CC50", "setting": "Tox21_110001=Tox21_110938", "result": 5.89, "unit": "µM"},
      {"measurement": "CC50", "setting": "Tox21_110001=Tox21_202070", "result": 10.9, "unit": "µM"},
      {"measurement": "CC50", "setting": "Tox21_110001=Tox21_300274", "result": 4.69, "unit": "µM"}
    ]},
    {"smiles": "c1ccc(C(O[C@@H]2CCCN(CCc3ccc4c(c3)OCO4)C2)c2ccccc2)cc1", "note": "[Zamifenacin]", "values": [
      {"measurement": "CC50", "setting": "Tox21_110001=Tox21_300210", "result": 40, "unit": "µM"}
    ]},
    {"smiles": "O=C(CCl)c1ccc(Cl)cc1Cl", "note": "[2,2',4'-Trichloroacetophenone]", "values": [
      {"measurement": "CC50", "setting": "Tox21_110001=Tox21_113246", "result": 2.14, "unit": "µM"},
      {"measurement": "CC50", "setting": "Tox21_110001=Tox21_113461", "result": 4.54, "unit": "µM"}
    ]},
    {"smiles": "CN(C)CCCN1c2ccccc2CCc2ccccc21", "note": "[Imipramine]", "values": [
      {"measurement": "CC50", "setting": "Tox21_110001=Tox21_110174", "result": 9.04, "unit": "µM"},
      {"measurement": "CC50", "setting": "Tox21_110001=Tox21_301417", "result": 19.5, "unit": "µM"}
    ]},
    {"smiles": "O=c1c(-c2ccc(O)cc2)coc2cc(O)cc(O)c12", "note": "[Genistein]", "values": [
      {"measurement": "CC50", "setting": "Tox21_110001=Tox21_110161", "result": 24.6, "unit": "µM"},
      {"measurement": "CC50", "setting": "Tox21_110001=Tox21_201428", "result": 38.3, "unit": "µM"},
      {"measurement": "CC50", "setting": "Tox21_110001=Tox21_300585", "result": 57.7, "unit": "µM"}
    ]},
    {"smiles": "Cc1c(O)cccc1C(=O)N[C@@H](CSc1ccccc1)[C@H](O)CN1C[C@H]2CCCC[C@H]2C[C@H]1C(=O)NC(C)(C)C", "note": "[Nelfinavir mesylate]", "values": [
      {"measurement": "CC50", "setting": "Tox21_110001=Tox21_111021", "result": 3.68, "unit": "µM"},
      {"measurement": "CC50", "setting": "Tox21_110001=Tox21_200921", "result": 1.83, "unit": "µM"}
    ]},
    {"smiles": "CC(C)Nc1ccc(Nc2ccccc2)cc1", "note": "[N-Isopropyl-N'-phenyl-p-phenylenediamine]", "values": [
      {"measurement": "CC50", "setting": "Tox21_110001=Tox21_111169", "result": 13.5, "unit": "µM"},
      {"measurement": "CC50", "setting": "Tox21_110001=Tox21_201424", "result": 36.2, "unit": "µM"},
      {"measurement": "CC50", "setting": "Tox21_110001=Tox21_303202", "result": 33.4, "unit": "µM"}
    ]},
    {"smiles": "CN(C)c1ccc(C(=O)c2ccc(N(C)C)cc2)cc1", "note": "[Michler's ketone]", "values": [
      {"measurement": "CC50", "setting": "Tox21_110001=Tox21_202416", "result": 2.74, "unit": "µM"}
    ]},
    {"smiles": "CCN(CC)CCCC(C)Nc1ccnc2cc(Cl)ccc12", "note": "(stereo not shown) [Chloroquine bis(phosphate)]", "values": [
      {"measurement": "CC50", "setting": "Tox21_110001=Tox21_110115", "result": 19.6, "unit": "µM"}
    ]},
    {"smiles": "CCCCCCCCCCCCCCCCn1cc[n+](C)c1", "note": "[1-Hexadecyl-3-methylimidazolium tetrafluoroborate]", "values": [
      {"measurement": "CC50", "setting": "Tox21_110001=Tox21_202647", "result": 12.9, "unit": "µM"}
    ]}
  ]
}
